Read-outs that look alike come from different tables or passages of the source.

Format in all cases: cell-based
The subject of experiment [1] is PD1-ss+10aa/Gaussia Luciferase. The experiment is described as follows: Dox-Induced PD1-ss-Gluc Assay. Put shortly:
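Stable cell line carrying PD1-ss+10aa/Gaussia luciferase cDNA under T-REx (doxycycline-inducible) control, plated the day before assay. Compound dilutions in DMSO/media containing doxycycline added and incubated at 37° C, 5% CO2. Undefined stereocentres: data refer to stereoisomer mixtures.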

In experiment [2] the test system is TNFα-FL/Gaussia Luciferase. Nature of the experiment: Dox Induced TNFα-FL-Gluc Assay. Summed up: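 A stable T-REx cell line carrying doxycycline-inducible TNFα-FL/Gaussia luciferase was plated the day before assay. Compound dilutions in DMSO/media containing doxycycline were then added and incubated at 37° C, 5% CO2.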
For experiment [3], the system named is HER3-ss+4aa/Gaussia Luciferase. Nature of the experiment: Dox-Induced Her3-ss-Gluc Assay. Put shortly:
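Stable T-REx cell line carrying a doxycycline-regulated HER3-ss+4aa/Gaussia luciferase insert, plated the day before assay. Compound dilutions in DMSO/media with doxycycline added, then incubated at 37° C., 5% CO2. Stereoisomer mixtures tested where stereochemistry is not drawn.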

In experiment [4] the test system is IL-2-FL/Gaussia Luciferase. Nature of the experiment: Dox Induced IL2-FL-Gluc Assay. Summed up: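 Stable T-REx cell line expressing doxycycline-inducible IL-2-FL/Gaussia luciferase cDNA, plated the day before assay. Compound dilutions in DMSO/media containing doxycycline added and incubated at 37° C., 5% CO2. Unspecified stereochemistry means data refer to a stereoisomer mixture.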

Experiment [5] relates to human multiple myeloma cell line NCI-H929. The experiment is described as follows: H929 Cell Viability Assay. As to conditions: 48 hr, NCI-H929 cells, Celltiter-Glo, read-out: 48 hr H929 Viability Celltiter-Glo: Mean EC50. On the procedure:
Plates were incubated at 37° C., 5% CO2 for 48 hours. After 48 hours, Celltiter-Glo® (Promega) was added to each well and luciferase signal was quantified using Tecan Infinite M1000 Pro for cell viability determination.
For chemical structures that include one or more stereoisomers, but are illustrated without indicating stereochemistry, the assay data refers to a mixture of stereoisomers.
Background: ATP-based viability assays read luminescence as a measure of living cells.

In experiment [6] the test system is human multiple myeloma cell line U266B1. Nature of the experiment: U266 Cell Viability Assay. The following applies: U-266, 48 hr, U266B1 cells, Celltiter-Glo, read-out: 48 hr U266 Viability Celltiter-Glo: Mean EC50. Summed up: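 U266B1 myeloma cells treated with compound dilutions in DMSO/media for 48 h at 37 °C, 5% CO2. Viability read by CellTiter-Glo luminescence. Stereochemically undefined structures were tested as stereoisomer mixtures.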

For orientation: EC50 means the concentration needed to bring the measured effect to its halfway point. In the case of `CC(C)OC(C)(C)c1csc(NC(=O)c2cccn2CC2CC(=O)N(C)C2)n1` (stereo not drawn) [Compound A210, N-(4-(2-isopropoxypropan-2-yl)thiazol-2-yl)-1-((1-methyl-5-oxopyrrolidin-3-yl)methyl)-1H-pyrrole-2-carboxamide], the IC50 was greater than 25 µM in experiment [1] (read-out: 24 hr Dox Inducible PD1ssGluc 293FRT/TO: Mean IC50; 24 hr doxycycline induction, 293FRT/TO cells, Gaussia luciferase signal); greater than 25 µM in experiment [2] (read-out: 24 hr Dox Inducible TNFaFLGluc 293FRT/TO: Mean IC50; 24 hr doxycycline induction, 293FRT/TO cells, Gaussia luciferase signal); greater than 25 µM in experiment [3] (read-out: 24 hr Dox Inducible Her3(ss + 4)Gluc 293FRT/TO: Mean IC50; 24 hr doxycycline induction, 293FRT/TO cells, Gaussia luciferase signal); greater than 25 µM in experiment [4] (read-out: 24 hr Dox Inducible IL2FLGIuc 293FRT/TO: Mean IC50; 24 hr doxycycline induction, 293FRT/TO cells, Gaussia luciferase signal). The EC50 in experiment [5] and in experiment [6] was greater than 25 µM each time.

In the case of `O=C(Nc1nc(C2Cc3ccccc3C2)cs1)c1cccn1Cc1ccncc1` [Compound A281], the IC50 in experiment [1] (24 hr doxycycline induction, 293FRT/TO cells, Gaussia luciferase signal; read-out: 24 hr Dox Inducible PD1ssGluc 293FRT/TO: Mean IC50) stood at 0.244 µM; in experiment [2] (24 hr doxycycline induction, 293FRT/TO cells, Gaussia luciferase signal; read-out: 24 hr Dox Inducible TNFaFLGluc 293FRT/TO: Mean IC50), 1.95 µM; in experiment [3] (24 hr doxycycline induction, 293FRT/TO cells, Gaussia luciferase signal; read-out: 24 hr Dox Inducible Her3(ss + 4)Gluc 293FRT/TO: Mean IC50), 0.817 µM; in experiment [4] (24 hr doxycycline induction, 293FRT/TO cells, Gaussia luciferase signal; read-out: 24 hr Dox Inducible IL2FLGIuc 293FRT/TO: Mean IC50), 1.16 µM. In addition, the EC50 in experiment [5] was 11 µM; in experiment [6], greater than 25 µM.

(Values after patent publication US20220153732A1, “PROTEIN SECRETION INHIBITORS” (KEZAR LIFE SCIENCES, priority 2019, published 2022).)
